Common to all, as to type: cell-based
The subject of experiment [1] is MRK-nu-1 cells / γδ T cells. The experiment is described as follows: TNF-α production from γδ T cells stimulated by compound-pretreated MRK-nu-1 cells. As to conditions: MRK-nu-1, Mammary carcinoma, 4 hr pretreatment, 16 hr with γδ T cells, read-out: TNF-α50. As for the experimental part: (§1) Since the above-mentioned results of Experimental Example confirm that the activity of bisphosphonic acids becomes high by POM esterification in various tumor cells, the TNF-α production induction ability of more number of tumor cells was quantitatively studied. […] Thereto was added a solution (500 μl) of compound 7 obtained by serially diluting 10 mM stock solution 10-fold from 20 μM, or a solution (500 μl) of compound 14 obtained by serially diluting 10 mM stock solution 10-fold from 200 μM, and the cells were suspended well. These conical tubes were stood at 37° C. for 4 hr, and the cells were washed 3 times with 5 ml of culture medium. To these cells was added 500 μl of medium, and the cells were suspended well. […] The cell culture medium was suspended well, and the plate was centrifuged at 1,700 rpm, 4° C. for 2 min and the culture supernatant (150 μl) was taken and placed in another round-bottomed 96 well plate. The plate was frozen at −80° C. overnight, left standing at room temperature for 1 hr, stirred well and 100 μl thereof was subjected to ELISA of TNF-α. The content of TNF-α was calculated from the analytical curve of TNF-α. These were performed in triplicate, and TNF-α50 of bisphosphonic acid POM ester derivative (compound 7) and bisphosphonic acid (compound 14) was calculated and summarized in Table 8.

Another experiment has as its system LK-2 cells. The experiment is described as follows: LK-2 tumor cell growth inhibition (CellTiterGlo). The conditions noted are these: LK-2, Lung cancer, 4 days culture. Background: ATP-based viability assays read luminescence as a measure of living cells.
The test system of the next experiment is K562 cells. The experiment in a line: K562 tumor cell growth inhibition (CellTiterGlo). The conditions noted are these: K562, Erythromcytoma, 4 days culture.
The subject of a further experiment is EJ-1 cells / γδ T cells. The experiment is described as follows: TNF-α production from γδ T cells stimulated by compound-pretreated EJ-1 cells (indirect antitumor action, ELISA). The conditions noted are these: for EC50: EJ-1 pretreated 4 hr with compound, 16 hr with γδ T cells, TNF-α ELISA, read-out: TNF-α50. Put shortly:
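EJ-1 cells exposed 4 h at 37 °C to 10-fold serial dilutions (POM esters from 20 µM, bisphosphonic acids from 200 µM), washed three times, then co-cultured with γδ T cells. Supernatant TNF-α measured by ELISA against a standard curve, in triplicate; TNF-α50 = […].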
A general note: An ELISA detects its analyte on a solid surface through an enzyme-linked reagent.

The subject of the next experiment is PK-1 cells. The experiment is described as follows: PK-1 tumor cell growth inhibition (CellTiterGlo). The conditions noted are these: PK-1, Pancreatic cancer, 4 days culture.
The subject of experiment [2] is MOLT-3 cells / γδ T cells. The experiment in a line: TNF-α production from γδ T cells stimulated by compound-pretreated MOLT-3 cells. The conditions noted are these: MOLT-3, Acute lymphoblastic leukemia, 4 hr pretreatment, 16 hr with γδ T cells, read-out: TNF-α50. As for the experimental part:
as §1

Another experiment deals with TFK-1 cells. The experiment in a line: TFK-1 tumor cell growth inhibition (CellTiterGlo). As to conditions: TFK-1, Cholangiocarcinoma, 4 days culture.
The next experiment deals with OST cells. The experiment in a line: OST tumor cell growth inhibition (CellTiterGlo). As to conditions: Osteosarcoma, 4 days culture.
The next experiment relates to C1R cells / γδ T cells. The experiment is described as follows: TNF-α production from γδ T cells stimulated by compound-pretreated C1R cells. The conditions noted are these: B cell lymphoma, 4 hr pretreatment, 16 hr with γδ T cells, read-out: TNF-α50. As for the experimental part:
as §1

For another experiment, the system named is 786-0 cells. The experiment is described as follows: 786-0 tumor cell growth inhibition (CellTiterGlo). As to conditions: 786-0, Renal cell carcinoma, 4 days culture.
Another experiment relates to PC-3 cells / γδ T cells. The experiment is described as follows: TNF-α production from γδ T cells stimulated by compound-pretreated PC-3 cells. The conditions noted are these: PC-3, Prostate cancer, 4 hr pretreatment, 16 hr with γδ T cells, read-out: TNF-α50. As for the experimental part:
as §1

Read-outs that look alike come from different tables or passages of the source.

Procedure for 786-0 cells: (§2) First, EJ-1, 786-0, MKN1, OST, PC-3, PK-1, LK-2, G-361, TFK-1, MRK-nu-1 were cultured in RPMI1640 medium supplemented with 10% calf serum at 37° C. under 5% CO2 atmosphere while maintaining log phase. The cells were recovered by a conventional EDTA trypsin treatment, and centrifuged at 1,700 rpm, 4° C. for 5 min. The supernatant was removed, and suspended in RPMI1640 medium supplemented with 10% calf serum to 500 cells/50 μl. On the other hand, 10 mM stock solution of compound 7 which is a bisphosphonic acid POM ester derivative was serially diluted 2-fold from 200 pM. In addition, 10 mM stock solution of compound 14 which is bisphosphonic acid was serially diluted 2-fold from 2 mM. Then, the cell suspension (50 μl, 500 cells) and the compound solution (50 μl) were added to a flat-bottomed 96 well plate and cultured at 37° C. under 5% CO2 atmosphere for 4 days. Then, 100 μl of CellTiterGlo solution was added, and the mixture was pipetted 10 strokes, and transferred to a 96 well OptiPlate. After standing at room temperature for 10 min, the luminescence was measured by a luminometer and IC50 value was calculated.
Procedure for K562 cells: To quantitatively study an action of compound 7, which is a bisphosphonic acid POM ester derivative, on various hematologic tumor-derived lymphoma and myeloidic leukemia cells, the concentration of a compound that inhibits cell proliferation to half was calculated as IC50, and a direct antitumor effect was studied from the value thereof. […] First, MOLT-4, THP-1, SCC-3, PEER, RAMOS-RA1, C1R, MOLT-3, Raji, U937, K562, Daudi were cultured in RPMI1640 medium supplemented with 10% calf serum at 37° C. under 5% CO2 atmosphere while maintaining log phase. The cells were recovered, and centrifuged at 1,700 rpm, 4° C. for 5 min. The supernatant was removed, and suspended in RPMI1640 medium supplemented with 10% calf serum to 500 cells/50 μl. On the other hand, 10 mM stock solution of compound 7 which is a bisphosphonic acid POM ester derivative was serially diluted 2-fold from 200 μM. In addition, 10 mM stock solution of compound 14 which is bisphosphonic acid was serially diluted 2-fold from 2 mM. Then, the cell suspension (50 μl, 500 cells) and the compound solution (50 μl) were added to a flat-bottomed 96 well plate and cultured at 37° C. under 5% CO2 atmosphere for 4 days. Then, 100 μl of CellTiterGlo solution was added, and the mixture was pipetted 10 strokes, and transferred to a 96 well OptiPlate. […]
Procedure for LK-2 cells: as §2
Procedure for OST cells: as §2
Procedure for PK-1 cells: as §2
Procedure for TFK-1 cells: as §2

What is called IC50 is the concentration at which inhibition is half-maximal. Read a low IC50 as higher potency. As for `CC(C)(C)C(=O)OCOP(=O)(OCOC(=O)C(C)(C)C)C(CNc1nccs1)P(=O)(OCOC(=O)C(C)(C)C)OCOC(=O)C(C)(C)C` [Compound 7, tetrakispivaloyloxymethyl 2-(thiazol-2-ylamino) ethylidene-1,1-bisphosphonate], the EC50 worked out at 180 nM in [1]; 60 nM in the experiment on EJ-1 cells / γδ T cells; 66 nM in experiment [2]; 530 nM with C1R cells / γδ T cells; 65 nM in the experiment with PC-3 cells / γδ T cells. Also, the IC50 is 800 nM in the experiment with LK-2 cells; 29 nM with K562 cells; 340 nM with PK-1 cells; 100 nM with TFK-1 cells; 810 nM with OST cells; 880 nM in the experiment on 786-0 cells. For the same molecule, in the experiment on EJ-1 cells / γδ T cells (EJ-1 pretreated with compound, γδ T cells), the “TNF-α production induction activity (in words)” value is given as “high activity”.
Consider `O=P(O)(O)C(CNc1nccs1)P(=O)(O)O` [Compound 14, 2-(thiazol-2-ylamino)ethylidene-1,1-bisphosphonic Acid, reference compound], for which the EC50 in experiment [1] (Homo sapiens) is more than 100000 nM; in the experiment on EJ-1 cells / γδ T cells (EJ1), 68000 nM; in [2] (Homo sapiens), more than 100000 nM; in the experiment on C1R cells / γδ T cells, more than 100000 nM; with PC-3 cells / γδ T cells (Homo sapiens), 77000 nM. Besides, the IC50 was 35000 nM in the experiment with LK-2 cells (Homo sapiens, 96 h); 16000 nM in the experiment with K562 cells (Homo sapiens, 96 h); 110000 nM with PK-1 cells (96 h); 30000 nM in the experiment with TFK-1 cells (96 h); 66000 nM with OST cells (96 h); 25000 nM in the experiment with 786-0 cells (Homo sapiens, 96 h).

These data come from patent publication US10532065B2, “Bisphosphonic acid derivative and application for same” (NAGASAKI UNIVERSITY, priority 2014, dated 2020).
